Patent US10745382B2 (BRISTOL-MYERS SQUIBB COMPANY, priority 2015, dated 2020)
pIC50: −log10 of the molar value. Like-named read-outs stand apart in the source and are kept apart here.

Biological target: T1, PD-1/PD-L1 (Homo sapiens, UniProt Q9NZQ7)
T1 construct: made in house; host or cells: HEK293T
Test: PD-1/PD-L1 Homogenous Time-Resolved Fluorescence (HTRF) binding assay
Settings: PD-L1-His 10 nM, PD-1-Ig 20 nM, read-out: Range or IC50
Procedure, shortened: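 Detection by europium cryptate anti-Ig plus APC anti-His (1 nM and 20 nM final) with HTRF signal. Buffer was dPBS, 0.1% BSA, 0.05% Tween-20.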

T1 sequence (Q9NZQ7 with tags, fused parts or gaps): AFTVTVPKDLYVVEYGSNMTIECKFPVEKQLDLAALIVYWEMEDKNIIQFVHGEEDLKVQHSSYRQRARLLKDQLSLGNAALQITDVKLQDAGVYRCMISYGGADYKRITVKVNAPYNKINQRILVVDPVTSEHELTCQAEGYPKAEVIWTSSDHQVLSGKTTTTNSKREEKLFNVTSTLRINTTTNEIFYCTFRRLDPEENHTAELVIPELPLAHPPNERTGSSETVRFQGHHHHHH

Row | Compound | pIC50 (value given as range class) | pIC50 (numeric IC50)
1 | Cc1c(COc2cc(OCc3cncc(C#N)c3)c(CNC(CO)(CO)CO)cc2Cl)cccc1-c1cccc(C(=O)N2CCOCC2)c1C [Example 4058, 5-((4-chloro-2-(((1,3-dihydroxy-2-(hydroxymethyl)propan-2-yl)amino)methyl)-5-((2,2′-dimethyl-3′-(morpholine-4-carbonyl)-[1,1′-biphenyl]-3-yl)methoxy)phenoxy)methyl)nicotinonitrile] | 7.00 to 8.00 | –
2 | Cc1c(COc2cc(OCc3cncc(C#N)c3)c(CN[C@@H](CN)C(=O)O)cc2Cl)cccc1-c1cccc(C(=O)N2CCOCC2)c1C [Example 4059, (S)-3-amino-2-((5-chloro-2-((5-cyanopyridin-3-yl)methoxy)-4-((2,2′-dimethyl-3′-(morpholine-4-carbonyl)-[1,1′-biphenyl]-3-yl)methoxy)benzyl)amino)propanoic Acid] | 5.70 to 7.00 | –
3 | Cc1c(COc2cc(OCc3cncc(C#N)c3)c(CN3CCNC[C@H]3C(=O)O)cc2Cl)cccc1-c1cccc(C(=O)N2CCOCC2)c1C [Example 4060, (S)-1-(5-chloro-2-((5-cyanopyridin-3-yl)methoxy)-4-((2,2′-dimethyl-3′-(morpholine-4-carbonyl)-[1,1′-biphenyl]-3-yl)methoxy)benzyl)piperazine-2-carboxylic Acid] | 5.70 to 7.00 | –
4 | Cc1c(CCCCN2CC[C@@H](O)C2)cccc1-c1cccc(COc2cc(OCc3cncc(C#N)c3)c(CN3CCCC[C@H]3C(=O)O)cc2Cl)c1C [Example 4061, (S)-1-(5-chloro-2-((5-cyanopyridin-3-yl)methoxy)-4-((3′-(4-((R)-3-hydroxypyrrolidin-1-yl)butyl)-2,2′-dimethyl-[1,1′-biphenyl]-3-yl)methoxy)benzyl)piperidine-2-carboxylic Acid] | 8.00 to 9.68 | –
5 | Cc1c(CCCCN2CC[C@@H](O)C2)cccc1-c1cccc(COc2cc(OCc3cncc(C#N)c3)c(CN3C[C@H](O)C[C@H]3C(=O)O)cc2Cl)c1C [Example 4062, (2S,4R)-1-(5-chloro-2-((5-cyanopyridin-3-yl)methoxy)-4-((3′-(4-((R)-3-hydroxypyrrolidin-1-yl)butyl)-2,2′-dimethyl-[1,1′-biphenyl]-3-yl)methoxy)benzyl)-4-hydroxypyrrolidine-2-carboxylic Acid] | 8.00 to 9.68 | –
6 | Cc1c(CCCCN2CC[C@@H](O)C2)cccc1-c1cccc(COc2cc(OCc3cncc(C#N)c3)c(CN3C[C@@H](O)C[C@H]3C(=O)O)cc2Cl)c1C [Example 4063, (2S,4S)-1-(5-chloro-2-((5-cyanopyridin-3-yl)methoxy)-4-((3′-(4-((R)-3-hydroxypyrrolidin-1-yl)butyl)-2,2′-dimethyl-[1,1′-biphenyl]-3-yl)methoxy)benzyl)-4-hydroxypyrrolidine-2-carboxylic Acid] | 8.00 to 9.68 | –
7 | Cc1c(CCCCN2CC[C@@H](O)C2)cccc1-c1cccc(COc2cc(OCc3cncc(C#N)c3)c(CNC(CO)CO)cc2Cl)c1C [Example 4064, (R)-5-((4-chloro-2-(((1,3-dihydroxypropan-2-yl)amino)methyl)-5-((3′-(4-(3-hydroxypyrrolidin-1-yl)butyl)-2,2′-dimethyl-[1,1′-biphenyl]-3-yl)methoxy)phenoxy)methyl)nicotinonitrile] | 8.00 to 9.68 | –
8 | Cc1c(CCCCN2CC[C@@H](O)C2)cccc1-c1cccc(COc2cc(OCc3cncc(C#N)c3)c(CNC(C)(CO)CO)cc2Cl)c1C [Example 4065, (R)-5-((4-chloro-2-(((1,3-dihydroxy-2-methylpropan-2-yl)amino)methyl)-5-((3′-(4-(3-hydroxypyrrolidin-1-yl)butyl)-2,2′-dimethyl-[1,1′-biphenyl]-3-yl)methoxy)phenoxy)methyl)nicotinonitrile] | 8.00 to 9.68 | –
9 | Cc1c(CCCCN2CC[C@@H](O)C2)cccc1-c1cccc(COc2cc(OCc3cncc(C#N)c3)c(CNC(CO)(CO)CO)cc2Cl)c1C [Example 4066, (R)-5-((4-chloro-2-(((1,3-dihydroxy-2-(hydroxymethyl)propan-2-yl)amino)methyl)-5-((3′-(4-(3-hydroxypyrrolidin-1-yl)butyl)-2,2′-dimethyl-[1,1′-biphenyl]-3-yl)methoxy)phenoxy)methyl)nicotinonitrile] | 8.00 to 9.68 | –
10 | Cc1c(CCCCN2CC[C@@H](O)C2)cccc1-c1cccc(COc2cc(OCc3cncc(C#N)c3)c(CN[C@@H](CNC(=O)OC(C)(C)C)C(=O)O)cc2Cl)c1C [Example 4067, (S)-3-((tert-butoxycarbonyl)amino)-2-((5-chloro-2-((5-cyanopyridin-3-yl)methoxy)-4-((3′-(4-((R)-3-hydroxypyrrolidin-1-yl)butyl)-2,2′-dimethyl-[1,1′-biphenyl]-3-yl)methoxy)benzyl)amino)propanoic Acid] | 8.00 to 9.68 | –
11 | Cc1c(CCCCN2CC[C@@H](O)C2)cccc1-c1cccc(COc2cc(OCc3cncc(C#N)c3)c(CN3CCN(C(=O)OC(C)(C)C)C[C@H]3C(=O)O)cc2Cl)c1C [Example 4068, (S)-4-(tert-butoxycarbonyl)-1-(5-chloro-2-((5-cyanopyridin-3-yl)methoxy)-4-((3′-(4-((R)-3-hydroxypyrrolidin-1-yl)butyl)-2,2′-dimethyl-[1,1′-biphenyl]-3-yl)methoxy)benzyl)piperazine-2-carboxylic Acid] | 8.00 to 9.68 | –
12 | Cc1c(CCCCN2CC[C@@H](O)C2)cccc1-c1cccc(COc2cc(OCc3cncc(C#N)c3)c(CN[C@@H](CN)C(=O)O)cc2Cl)c1C [Example 4069, (S)-3-amino-2-((5-chloro-2-((5-cyanopyridin-3-yl)methoxy)-4-((3′-(4-((R)-3-hydroxypyrrolidin-1-yl)butyl)-2,2′-dimethyl-[1,1′-biphenyl]-3-yl)methoxy)benzyl)amino)propanoic Acid] | 8.00 to 9.68 | –
13 | Cc1c(CCCCN2CC[C@@H](O)C2)cccc1-c1cccc(COc2cc(OCc3cncc(C#N)c3)c(CN3CCNC[C@H]3C(=O)O)cc2Cl)c1C [Example 4070, (S)-1-(5-chloro-2-((5-cyanopyridin-3-yl)methoxy)-4-((3′-(4-((R)-3-hydroxypyrrolidin-1-yl)butyl)-2,2′-dimethyl-[1,1′-biphenyl]-3-yl)methoxy)benzyl)piperazine-2-carboxylic Acid] | 8.00 to 9.68 | –
14 | Cc1c(COc2cc(OCc3cncc(C#N)c3)c(CN3CCCC[C@H]3C(=O)O)cc2Cl)cccc1-c1cccc(CN(C)CCN2CCS(=O)(=O)CC2)c1C [Example 4079, (S)-1-(5-chloro-2-((5-cyanopyridin-3-yl)methoxy)-4-((3′-(((2-(1,1-dioxidothiomorpholino)ethyl)(methyl)amino)methyl)-2,2′-dimethyl-[1,1′-biphenyl]-3-yl)methoxy)benzyl)piperidine-2-carboxylic Acid] | – | 7.14
15 | Cc1c(COc2cc(OCc3cncc(C#N)c3)c(CNC(CO)CO)cc2Cl)cccc1-c1cccc(CN(C)CCN2CCS(=O)(=O)CC2)c1C [Example 4080, 5-((4-chloro-2-(((1,3-dihydroxypropan-2-yl)amino)methyl)-5-((3′-(((2-(1,1-dioxidothiomorpholino)ethyl)(methyl)amino)methyl)-2,2′-dimethyl-[1,1′-biphenyl]-3-yl)methoxy)phenoxy)methyl)nicotinonitrile] | 8.00 to 9.68 | –
16 | Cc1c(COc2cc(OCc3cncc(C#N)c3)c(CN[C@@](C)(CO)C(=O)O)cc2Cl)cccc1-c1cccc(CN(C)CCN2CCS(=O)(=O)CC2)c1C [Example 4081, (S)-2-((5-chloro-2-((5-cyanopyridin-3-yl)methoxy)-4-((3′-(((2-(1,1-dioxidothiomorpholino)ethyl)(methyl)amino)methyl)-2,2′-dimethyl-[1,1′-biphenyl]-3-yl)methoxy)benzyl)amino)-3-hydroxy-2-methylpropanoic Acid] | 7.00 to 8.00 | –
17 | Cc1c(COc2cc(OCc3cncc(C#N)c3)c(CNC(C)(CO)CO)cc2Cl)cccc1-c1cccc(CN(C)CCN2CCS(=O)(=O)CC2)c1C [Example 4082, 5-((4-chloro-2-(((1,3-dihydroxy-2-methylpropan-2-yl)amino)methyl)-5-((3′-(((2-(1,1-dioxidothiomorpholino)ethyl)(methyl)amino)methyl)-2,2′-dimethyl-[1,1′-biphenyl]-3-yl)methoxy)phenoxy)methyl)nicotinonitrile] | 8.00 to 9.68 | –
18 | Cc1c(COc2cc(OCc3cncc(C#N)c3)c(CNC(CO)(CO)CO)cc2Cl)cccc1-c1cccc(CN(C)CCN2CCS(=O)(=O)CC2)c1C [Example 4083, 5-((4-chloro-2-(((1,3-dihydroxy-2-(hydroxymethyl)propan-2-yl)amino)methyl)-5-((3′-(((2-(1,1-dioxidothiomorpholino)ethyl)(methyl)amino)methyl)-2,2′-dimethyl-[1,1′-biphenyl]-3-yl)methoxy)phenoxy)methyl)nicotinonitrile] | 8.00 to 9.68 | –
19 | Cc1c(COc2cc(OCc3cncc(C#N)c3)c(CN(CCO)CCO)cc2Cl)cccc1-c1cccc(CN(C)CCN2CCS(=O)(=O)CC2)c1C [Example 4084, 5-((2-((bis(2-hydroxyethyl)amino)methyl)-4-chloro-5-((3′-(((2-(1,1-dioxidothiomorpholino)ethyl)(methyl)amino)methyl)-2,2′-dimethyl-[1,1′-biphenyl]-3-yl)methoxy)phenoxy)methyl)nicotinonitrile] | 7.00 to 8.00 | –
20 | Cc1c(COc2cc(OCc3cncc(C#N)c3)c(CN(CCO)CCCO)cc2Cl)cccc1-c1cccc(CN(C)CCN2CCS(=O)(=O)CC2)c1C [Example 4085, 5-((4-chloro-5-((3′-(((2-(1,1-dioxidothiomorpholino)ethyl)(methyl)amino)methyl)-2,2′-dimethyl-[1,1′-biphenyl]-3-yl)methoxy)-2-(((2-hydroxyethyl)(3-hydroxypropyl)amino)methyl)phenoxy)methyl)nicotinonitrile] | 7.00 to 8.00 | –
21 | Cc1cc(OCc2cccc(-c3cccc(OCCCN4CC[C@@H](O)C4)c3C)c2C)cc(OCc2cncc(C#N)c2)c1CN1CCCC[C@H]1C(=O)O [Example 4086, (S)-1-(2-((5-cyanopyridin-3-yl)methoxy)-4-((3′-(3-((R)-3-hydroxypyrrolidin-1-yl)propoxy)-2,2′-dimethyl-[1,1′-biphenyl]-3-yl)methoxy)-6-methylbenzyl)piperidine-2-carboxylic Acid] | 8.00 to 9.68 | –
